From US4659734A, “Olinecarboxylic acid derivatives” (Nippon Shinyaku Co., Ltd., priority 1983, dated 1987)
In brackets after ≈: the same amount, converted by molar mass. One block for each compound: values may come before it.

What was measured:
Serracia marcescens T-55 = experiment: Mouse intraperitoneal infection, survival after one week; format: in vivo, ddY strain mice; settings: po; Serracia marcescens T-55, 5 × 10^6 per mouse; one dose per os 2 h after infection
Protocol: (§1) ddY--Strain mice (male; body weight 20±1 grams) of SPF were innoculated with the bacteria set forth in Table 2 by administration of a supension of the bacterial in 4% mucin solution into the abdominal cavity. A compound of the invention was given one time per os two hours after the infection, and, from the survival rate after one week. 50% effective doses (ED50) were calculated by the Behrens-Karber method.

[1] = tested on: Acimetobacter calcoaceticus; experiment: as above; format: in vivo, ddY strain mice; settings: po, 1 × 10^7 per mouse, one dose per os 2 h after infection
Protocol: as §1

[2] = tested on: Staphylococcus aureus Smith; experiment: as above; format: in vivo, ddY strain mice; settings: po, 3 × 10^6 per mouse, one dose per os 2 h after infection
Protocol: as §1

Proteus mirabilis 181 [3] = experiment: as above; format: in vivo, ddY strain mice; settings: po; Proteus mirabilis 181, 2 × 10^7 per mouse; one dose per os 2 h after infection
Protocol: as §1

Escherichia coli KC-14 [4] = experiment: as above; format: in vivo, ddY strain mice; settings: KC14, po; Escherichia coli KC-14, 5 × 10^4 per mouse; one dose per os 2 h after infection
Protocol: as §1

[5] = tested on: Pseudomonas aeruginosa E-2; experiment: as above; format: in vivo, ddY strain mice; settings: E2, po; Pseudomonas aeruginosa E-2, 2 × 10^5 per mouse; one dose per os 2 h after infection; Behrens-Karber
Protocol: as §1

[6] = tested on: Klebsiella pneumoniae K-1966; experiment: as above; format: in vivo, ddY strain mice; settings: K1966, po; Klebsiella pneumoniae K-1966, 3 × 10^3 per mouse; one dose per os 2 h after infection
Protocol: as §1

[7] = tested on: Pseudomonas aeruginosa E-2; experiment: Ascending urinary tract infection; format: in vivo, ICR female mice
Protocol: ICR Female mice (body weight 20±1 grams) of SPE strain were used in the experiments. The mice were not given any water for seventeen hours, then compulsorily urinated, anesthesized by the administration of 60 mg/kg of pentobarbital into the abdominal cavity, then 1.5×10^5 of Pseudomonas aeruginosa E-2 strain were impregnated into the bladder via the urinary tract, and the external urinary meatus was stopped for four hours by a pin clip, whereupon the mice were infected in the ascending urinary tract.
The compound of Example 22b was given once orally, 4 hours after infection, then twice a day, and the administration was continued for three days. On the fourth day, the kidney was isolated, homogenized in a physiological saline solution, and the number of bacteria was calculated on suitable medium such as, for example, Drigalski medium. If the number of bacteria per one gram of kidney was less than […], then the compound was judged as "effective".

[8] = Blood serum concentration, disc method; format: in vivo, ddY strain mice; settings: mouse, serum, po, 60 mg/kg per os, average ± standard error
Protocol: In this experiment, ddY strain mice (male; body weight 30±2 grams) were used. Sixty mg/kg of the compound of Example 22b were given per os. The blood concentration was calculated from calibration curves obtained by the disc method using Escherichia coli NIHJ strain as tested bacteria and diluting the test compound of mice serum.

[9] = Excretion into urine and recovery, disc method; format: in vivo, ddY strain mice; settings: 60 mg/kg per os, average ± standard error
Protocol: In the measurement of excretion into urine, ddY strain mice (male; body weights 30±2 grams) were used. Sixty mg/kg of the compound of Example 22b was administered per os and the mice were fed in metabolic cages and their urine was collected.
Therefore, in the quantitative determination, the calibration curve of the compound of Example 21, calculated by the disc method using Escherichia coli NIHJ strain and using the compound dissolved in phosphoric acid buffer (pH 8.0; 1/15M) was used. Table 5 reports the excretion into urine with respect to time, total recovery amount and recovery rate of the compound of Example 22b.

[10] = tested on: Streptococcus pyogenes S-23; experiment: Minimum growth inhibiting concentration, Japan Chemotherapeutic Society method; format: cell-based; settings: S23; Streptococcus pyogenes S-23, Gram +; 5% horse blood added agar medium; read-out: Minimum Growth Inhibiting Concn
Protocol: (§2) The Antibacterial activity of the compounds of Examples 14, 13, 22b, 21 and 15 was determined in accordance with the method of Japan Chemotherapeutic Society (cf. Nippon Kagaku Ryoho Gakkai Shi, volume 29, number 1, pages 76 to 79, 1981) and the results are reported in Table 1, which follows. | *5% Horse blood added agar medium for sensitivity measurement being used.

[11] = tested on: Streptococcus pneumoniae Type I; experiment: as above; format: cell-based; settings: Gram +, 5% horse blood added agar medium, read-out: Minimum Growth Inhibiting Concn
Protocol: as §2

[12] = tested on: Bacillus subtilis ATCC 6633; experiment: as above; format: cell-based; settings: ATCC6633; Bacillus subtilis ATCC 6633, Gram +; 5% horse blood added agar medium; read-out: Minimum Growth Inhibiting Concn
Protocol: as §2

Acute toxicity = settings: mouse, in vivo; oral, groups of ten ddY male mice; read-out: 50% Lethal Doses (LD50)
Protocol: Groups of ten ddY strain male mice (body weights: 20±1 grams) of the test compound were orally administered to determine the LD50. There was […] in which many mice died when the dose was 2000 mg/kg or less.

[13] = tested on: Serracia marcescens IFO 3736; experiment: Minimum growth inhibiting concentration, Japan Chemotherapeutic Society method; format: cell-based; settings: Serracia marcescens IFO 3736, Gram -; read-out: Minimum Growth Inhibiting Concn
Protocol: (§3) The Antibacterial activity of the compounds of Examples 14, 13, 22b, 21 and 15 was determined in accordance with the method of Japan Chemotherapeutic Society (cf. Nippon Kagaku Ryoho Gakkai Shi, volume 29, number 1, pages 76 to 79, 1981) and the results are reported in Table 1, which follows.

[14] = tested on: Listeria monocytogenes RIMD 1205020; experiment: as above; format: cell-based; settings: RIMD1205020; Listeria monocytogenes RIMD 1205020, Gram +; read-out: Minimum Growth Inhibiting Concn
Protocol: as §3

[15] = tested on: Pseudomonas aeruginosa No. 12; experiment: as above; format: cell-based; settings: Pseudomonas aeruginosa No. 12, Gram -; read-out: Minimum Growth Inhibiting Concn
Protocol: as §3

[16] = tested on: Pseudomonas maltophilia ATCC 13637; experiment: as above; format: cell-based; settings: Stenotrophomonas maltophilia, ATCC13637; Pseudomonas maltophilia ATCC 13637, Gram -; read-out: Minimum Growth Inhibiting Concn
Protocol: as §3

[17] = tested on: Acinetobacter calcoacelicus 54; experiment: as above; format: cell-based; settings: Acinetobacter calcoacelicus 54, Gram -; read-out: Minimum Growth Inhibiting Concn
Protocol: as §3

[18] = tested on: Staphylococcus aureus Smith; experiment: as above; format: cell-based; settings: Gram +, read-out: Minimum Growth Inhibiting Concn
Protocol: as §3

Proteus mirabilis 181 [19] = experiment: as above; format: cell-based; settings: Proteus mirabilis 181, Gram -; read-out: Minimum Growth Inhibiting Concn
Protocol: as §3

[20] = tested on: Pseudomonas cepacia ATCC 25416; experiment: as above; format: cell-based; settings: Burkholderia cepacia, ATCC25416; Pseudomonas cepacia ATCC 25416, Gram -; read-out: Minimum Growth Inhibiting Concn
Protocol: as §3

[21] = tested on: Micrococcus luteus ATCC 9341; experiment: as above; format: cell-based; settings: ATCC9341; Micrococcus luteus ATCC 9341, Gram +; read-out: Minimum Growth Inhibiting Concn
Protocol: as §3

Escherichia coli KC-14 [22] = experiment: as above; format: cell-based; settings: KC14; Escherichia coli KC-14, Gram -; read-out: Minimum Growth Inhibiting Concn
Protocol: as §3

[23] = tested on: Staphylococcus aureus 209-PJC; experiment: as above; format: cell-based; settings: Gram +, read-out: Minimum Growth Inhibiting Concn
Protocol: as §3

[24] = tested on: Escherichia coli NIHJ JC-2; experiment: as above; format: cell-based; settings: NIHJJC2; Escherichia coli NIHJ JC-2, Gram -; read-out: Minimum Growth Inhibiting Concn
Protocol: as §3

[25] = tested on: Pseudomonas aeruginosa E-2; experiment: as above; format: cell-based; settings: E2; Pseudomonas aeruginosa E-2, Gram -; read-out: Minimum Growth Inhibiting Concn
Protocol: as §3

Proteus vulgaris DX-19 = experiment: as above; format: cell-based; settings: DX19; Proteus vulgaris DX-19, Gram -; read-out: Minimum Growth Inhibiting Concn
Protocol: as §3

[26] = tested on: Alcaligenes faecalis ATCC 8750; experiment: as above; format: cell-based; settings: ATCC8750; Alcaligenes faecalis ATCC 8750, Gram -; read-out: Minimum Growth Inhibiting Concn
Protocol: as §3

[27] = tested on: Klebsiella pneumoniae K-1966; experiment: as above; format: cell-based; settings: K1966; Klebsiella pneumoniae K-1966, Gram -; read-out: Minimum Growth Inhibiting Concn
Protocol: as §3

concentration at 0.25 h ([8]; 0.25 hours): 640 ± 90 ng/mL | concentration at 0.5 h ([8]; 0.5 hours): 900 ± 290 ng/mL | concentration at 1 h ([8]; 1 hour): 580 ± 100 ng/mL | concentration at 2 h ([8]; 2 hours): 330 ± 150 ng/mL | concentration at 4 h ([8]; 4 hours): 90 ± 10 ng/mL | Amount excreted into Urine ([9]; 0-3 hrs): 60.25 ± 17.9 µg | Amount excreted into Urine ([9]; 3-6 hrs): 29.25 ± 9.0 µg | Amount excreted into Urine ([9]; 6-24 hrs): 19.78 ± 6.6 µg
Compound: CCn1cc(C(=O)O)c(=O)c2cc(F)c(N3CCNCC3)cc21 [Comparison Compd., 1-ethyl-6-fluoro-7-(1-piperazinyl)-4-oxo-1,4-dihydroquinoline-3-carboxylicacid, reference compound]
ED50 (Serracia marcescens T-55): 6 mg/kg | ED50 [1]: > 35 mg/kg | ED50 [2]: > 25 mg/kg | ED50 (Proteus mirabilis 181 [3]): 29 mg/kg | ED50 (Escherichia coli KC-14 [4]): 3.3 mg/kg | ED50 [5]: 260 mg/kg | ED50 [6]: > 13 mg/kg | Number Of Mice Where Compound Was Effective/Total Mice Tested ([7]; 3.13 mg/kg oral): 0/7 | Number Of Mice Where Compound Was Effective/Total Mice Tested ([7]; 6.25 mg/kg oral): 0/7 | Number Of Mice Where Compound Was Effective/Total Mice Tested ([7]; 12.5 mg/kg oral): 0/7 | Number Of Mice Where Compound Was Effective/Total Mice Tested ([7]; 25 mg/kg oral): 1/7 | Number Of Mice Where Compound Was Effective/Total Mice Tested ([7]; 50 mg/kg oral): 4/7 | Number Of Mice Where Compound Was Effective/Total Mice Tested ([7]; 100 mg/kg oral, 4 h after infection then twice a day, three days): 6/7 | ED50 ([7]; Pseudomonas aeruginosa, E2, in Mus musculus, 72 h, ascending urinary tract infection, oral, three days, read-out: 50% Effective Dose): 58 mg/kg

Compound: O=C(O)c1c(=O)c2cc(F)c(N3CCNCC3)cc2n2ccsc12 [Example 13, 7-fluoro-5-oxo-8(1-piperazinyl)-5H-thiazolo(3,2-a)quinoline-4-carboxylic acid]
MIC [10]: 0.1 µg/mL (≈ 0.288 µM) | MIC [11]: 0.1 µg/mL (≈ 0.288 µM) | MIC [12]: 0.0063 µg/mL (≈ 0.0181 µM) | LD50 (Acute toxicity): > 2000 mg/kg | MIC [13]: 0.2 µg/mL (≈ 0.576 µM) | MIC [14]: 0.2 µg/mL (≈ 0.576 µM) | MIC [15]: 0.2 µg/mL (≈ 0.576 µM) | MIC [16]: 0.5 µg/mL (≈ 1.44 µM) | MIC [17]: 0.78 µg/mL (≈ 2.25 µM) | MIC [18]: 0.05 µg/mL (≈ 0.144 µM) | MIC (Proteus mirabilis 181 [19]): 0.0063 µg/mL (≈ 0.0181 µM) | MIC [20]: 0.78 µg/mL (≈ 2.25 µM) | MIC [21]: 0.78 µg/mL (≈ 2.25 µM) | MIC (Escherichia coli KC-14 [22]): 0.0063 µg/mL (≈ 0.0181 µM) | MIC [23]: 0.025 µg/mL (≈ 0.072 µM) | MIC [24]: 0.05 µg/mL (≈ 0.144 µM) | MIC [25]: 0.2 µg/mL (≈ 0.576 µM) | MIC (Proteus vulgaris DX-19): 0.013 µg/mL (≈ 0.0374 µM) | MIC [26]: 0.78 µg/mL (≈ 2.25 µM) | MIC [27]: 0.025 µg/mL (≈ 0.072 µM)
